Calls of active or inactive are those of the source. The calls are words filed in the database; no cut-off is given here.
Experiments:
[1] = Cytotoxicity against human A549 cells incubated for 48 hrs by celltiter-glo luminescent cell viability assay; assay type: toxicity, cell-based
Influenza A virus [2] = experiment: Antiviral activity against group 2 influenza A H7N1 pseudotyped virus infected in A549 cells assessed as inhibition of viral entry incubated for 48 hrs by measuring luciferase activity by Neolite reporter gene assay; assay type: functional, organism-based; details: H7N1, A549, 48 h
[3] = Selectivity index, ratio of CC50 for human A549 cells to IC50 for group 2 influenza A H7N1 pseudotyped virus infected in A549 cells; assay type: toxicity, cell-based; details: read-out: Ratio CC50/IC50
[4] = Selectivity index, ratio of CC50 for human A549 cells to IC50 for VSV pseudotyped virus infected in A549 cells; assay type: toxicity, cell-based; details: read-out: Ratio CC50/IC50
[5] = Selectivity index, ratio of CC50 for human A549 cells to IC50 for […] influenza A H5N1 pseudotyped virus infected in A549 cells; assay type: toxicity, cell-based; details: read-out: Ratio CC50/IC50
[6] = test system: Vesicular stomatitis virus; experiment: Antiviral activity against VSV pseudotyped virus infected in A549 cells assessed as inhibition of viral entry incubated for 48 hrs by measuring luciferase activity by Neolite reporter gene assay; assay type: functional, organism-based; details: A549, 48 h
Influenza A virus [7] = experiment: Antiviral activity against […] influenza A H5N1 pseudotyped virus infected in A549 cells assessed as inhibition of viral entry incubated for 48 hrs by measuring luciferase activity by Neolite reporter gene assay; assay type: functional, organism-based; details: H5N1, A549, 48 h
Influenza A virus [8] = experiment: (§1) Antiviral activity against group 2 influenza A virus H3N2 (A/Victoria/361/2011) infected in MDCK cells infected with supernatant of compound treated virus-producing human A549 cells assessed as reduction in viral titer at 1 to 10 uM treated for 48 hrs with virus-producing human A549 cells followed by MDCK cells infection for 48 hrs by crystal violet staining based plaque assay; assay type: functional, organism-based; details: dose 1-10 µM, time 96.0 hrs
Influenza A virus [9] = experiment: as §1, with “(A/Hong Kong-11/1968)” for “(A/Victoria/361/2011)”; assay type: functional, organism-based; details: dose 1-10 µM, time 96.0 hrs

Row | Compound | CC50 at 48 h [1] [µM] | IC50 (Influenza A virus [2]) [µM] | selectivity ratio [3] | selectivity ratio [4] | selectivity ratio [5] | IC50 [6] [µM] | IC50 (Influenza A virus [7]) [µM] | Activity (Influenza A virus [8]) | Activity (Influenza A virus [9])
1 | O=C(O)CCCOc1ccc(-c2nc3ncccn3c2NC2CCCCC2)cc1 | > 100 | 0.18 | > 560 | – | – | – | – | – | –
2 | CCCCOc1ccc(-c2nc3ncccn3c2NCc2ccc(OC)cc2)cc1 | 55 | 14 | 4 | – | – | – | – | – | –
3 | CCCCOc1ccc(-c2nc3ncccn3c2NC2CCCCC2)cc1 | 52 | 0.67 | 78 | 2 | 1 | 36 | 84 | – | –
4 | CCCCOc1ccc(-c2nc3ncccn3c2Nc2ccccc2)c(C)c1 | 23 | 4.5 | 5.1 | – | – | – | – | – | –
5 | c1ccc(-c2nc3ncccn3c2NC2CCCCC2)cc1 | 100 | 0.66 | – | – | – | 74 | 46 | Active | Active
6 | CCOC(=O)CCCOc1ccc(-c2nc3ncccn3c2NC2CCCCC2)cc1 | > 100 | 1.8 | > 560 | – | – | – | – | – | –
7 | CCCCOc1ccc(-c2nc3ncccn3c2NC2CCCCCC2)cc1 | 26 | 0.44 | 59 | – | – | – | – | – | –
8 | CCCCOc1ccc(-c2c(N)nc3ncccn23)cc1 | > 100 | 58 | > 1.7 | – | – | – | – | – | –
9 | Fc1ccc(-c2nc3ncccn3c2NC2CCCCC2)cc1 | 100 | 0.023 | – | – | – | 53 | 46 | Active | Active
10 | CCCCOc1ccc(-c2nc3ncccn3c2NCc2nc[nH]c2C)cc1 | 100 | 100 | 1 | – | – | – | – | – | –
11 | CCCCOc1ccc(-c2nc3ncccn3c2NC(C)(C)CC(C)(C)C)cc1 | 29 | 2.3 | 13 | – | – | – | – | – | –
12 | FC(F)(F)c1cc(Br)ccc1-c1nc2ncccn2c1NC1CCCCC1 | 25 | 1.4 | 18 | 1 | 1 | 24 | 20 | Active | Active
13 | CCCCOc1ccc(-c2nc3ncccn3c2Nc2ccccc2)cc1 | 100 | 100 | 1 | – | – | – | – | – | –
14 | CCNC(=O)CCCOc1ccc(-c2nc3ncccn3c2NC2CCCCC2)cc1 | > 100 | 0.064 | > 1600 | – | – | – | – | – | –
15 | Cc1cc(Br)ccc1-c1nc2ncccn2c1NC1CCCCC1 | 45 | 0.17 | – | – | – | 39 | 45 | Active | Active
16 | CCCCOc1ccc(-c2nc3ncccn3c2NCc2c[nH]cn2)cc1 | > 100 | 38 | > 3 | – | – | – | – | – | –
17 | Oc1ccc(-c2nc3ncccn3c2NC2CCCCC2)cc1 | > 100 | 0.052 | – | – | – | 65 | 36 | Active | Active
18 | Nc1nc2ncccn2c1-c1ccc(Br)cc1 | > 100 | 100 | > 1 | – | – | – | – | – | –
19 | CN(c1c(-c2ccc(F)cc2)nc2ncccn12)C1CCCCC1 | > 100 | 1.3 | > 77 | – | – | – | – | – | –
20 | c1cnc2nc(-c3ccc(OC4CCCC4)cc3)c(NC3CCCCC3)n2c1 | 39 | 0.68 | 57 | – | – | – | – | – | –
21 | COc1ccccc1-c1nc2ncccn2c1NC1CCCCC1 | > 100 | 2.3 | > 43 | < 1 | < 1 | > 100 | > 100 | – | –
22 | Brc1ccc(-c2nc3ncccn3c2Nc2ccccc2)cc1 | > 100 | 1.5 | > 67 | – | – | – | – | – | –
23 | COc1ccccc1-c1nc2ncccn2c1N(C(C)=O)C1CCCCC1 | > 100 | > 100 | > 1 | – | – | – | – | – | –
24 | CCCCOc1ccc(-c2nc3ncccn3c2NC(C)C)cc1 | 68 | 2.3 | 30 | – | – | – | – | – | –
25 | COCCOc1ccc(-c2nc3ncccn3c2Nc2ccccc2)cc1 | > 100 | 5.2 | > 19 | – | – | – | – | – | –
26 | CC(C)(C)CC(C)(C)Nc1c(-c2ccc(Br)cc2)nc2ncccn12 | 32 | 1 | 32 | – | – | – | – | – | –
27 | Oc1ccccc1-c1nc2ncccn2c1NC1CCCCC1 | > 100 | 10 | > 10 | – | – | – | – | – | –

Source: ChEMBL document CHEMBL5108080 (J Med Chem, 2022)
